The values that follow come from ChEMBL document CHEMBL1139055, “Structure-activity relationships of pentacycloundecylamines at the N-methyl-d-aspartate receptor” (Bioorg Med Chem, 2007).

Structures are written as SMILES. Calls of active or inactive are those of the source. The calls are words filed in the database; no cut-off is given here.

Experiment [1] is filed under the species Mus musculus. Briefly: Displacement of [3H]MK-801 from NMDA receptor in ICR mouse synaptoneurosome at 100 uM. For orientation: In a radioligand displacement assay an active substance lowers the binding of a labelled ligand.
Experiment [2] is described as follows: Antagonist activity at NMDA receptor in ICR mouse synaptoneurosome assessed as inhibition of NMDA/Gly-mediated 45-calcium influx. In kind it is functional.
Experiment [3] in a line: Antagonist activity at NMDA receptor in ICR mouse synaptoneurosome assessed as inhibition of NMDA/Gly-mediated 45-calcium influx at 2 uM relative to control. In kind it is functional.
The species named for experiment [4] is Mus musculus. Briefly: Displacement of [3H]TCP from NMDA receptor in ICR mouse synaptoneurosome at 100 uM.
Experiment [5] is filed under the species Mus musculus. Kind of experiment: Displacement of [3H]glutamate from NMDA receptor in ICR mouse synaptoneurosome.

As usually defined, the IC50 is the concentration at which inhibition is half-maximal. By Inhibition is commonly meant the change of the read-out against control, counted positive when it falls. Consider `c1ccc(CNC23OC4C5C6CC(C7C6C4C72)C53)cc1` (configuration not stated), for which the result in the experiment listed under Mus musculus [1] and in the experiment filed under Mus musculus [5] was inactive. Besides, in experiment [2], the IC50 turned out to be 2.98 µM. For the same molecule, the Inhibition in experiment [3] is given as 108.9%. In the experiment filed under Mus musculus [4], the Activity is 20%.
In the case of `NC1C2C3CC4C1C1C2CC3C41` (configuration not stated), the outcome in the experiment listed under Mus musculus [1], in the experiment filed under Mus musculus [4] and in the experiment listed under Mus musculus [5] was inactive. For the same molecule, the half-inhibitory concentration (IC50) in experiment [2] came to 4.06 µM.
Consider `c1ccc(CCNC23OC4C5C6CC(C7C6C4C72)C53)cc1` (configuration not stated), for which the result in the experiment filed under Mus musculus [1] was inactive. In addition, the IC50 in experiment [2] was determined as 23.5 µM. In addition, the Activity in the experiment listed under Mus musculus [4] amounted to 44%.
Consider `OC12CC3C4C5CC6C4C3C1C(NCc1ccccc1)C6C52` (configuration not stated), for which, in experiment [2], the IC50 came out at 36.2 µM.
The same measure, in the same setting: the figure for `O=[N+]([O-])c1cccc(CNC23OC4C5C6CC(C7C6C4C72)C53)c1` (configuration not stated) is 32.8 µM; for `COc1cccc(CNC23OC4C5C6CC(C7C6C4C72)C53)c1` (configuration not stated) it is 20.7 µM.
As for `CC12CC3CC(C)(C1)CC(N)(C3)C2` [MEMANTINE], the Activity amounted to 90% in the experiment filed under Mus musculus [1] and 67% in the experiment listed under Mus musculus [4]. Moreover, in experiment [2], the 50% inhibitory concentration (IC50) came out at 3.05 µM.
`C[C@]12N[C@H](Cc3ccccc31)c1ccccc12` [DIZOCILPINE]: the results for the Activity in the experiment filed under Mus musculus [1] and in the experiment listed under Mus musculus [4] were 73% and 65%, respectively. In addition, the IC50 in experiment [2] worked out at 1.23 µM.
Turning to `O=[N+]([O-])c1ccccc1CNC12OC3C4C5CC(C6C5C3C61)C42` (configuration not stated), in experiment [2], the IC50 turned out to be 37.6 µM.
